Reference: PubChem BioAssay (NCI)
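A five-concentration, 48-hour dose response in 96-well plates underlies each endpoint, interpolated linearly between surrounding concentrations. TGI denotes the concentration required for complete inhibition of growth.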

Columns and labels:
Experiment in all cases: growth of human tumour cells (NCI), 48 h
A549 NSCLC = tested on: A549 NSCLC
DLD-1 colon = tested on: DLD-1 colon
HL-60(TB) leukemia = tested on: HL-60(TB) leukemia
LXFL 529 NSCLC = tested on: LXFL 529 NSCLC
MOLT-4 leukemia = tested on: MOLT-4 leukemia
OVCAR-3 ovarian = tested on: OVCAR-3 ovarian
RXF 393 renal = tested on: RXF 393 renal
SK-MEL-5 melanoma = tested on: SK-MEL-5 melanoma

| Compound | TGI (A549 NSCLC) [µM] | TGI (DLD-1 colon) [µM] | TGI (HL-60(TB) leukemia) [µM] | TGI (LXFL 529 NSCLC) [µM] | TGI (MOLT-4 leukemia) [µM] | TGI (OVCAR-3 ovarian) [µM] | TGI (RXF 393 renal) [µM] | TGI (SK-MEL-5 melanoma) [µM] |
| --- | --- | --- | --- | --- | --- | --- | --- | --- |
| C#CCN(C(=O)C(F)(F)F)c1ccc(C(=O)c2ccc(N(CC#C)C(=O)C(F)(F)F)cc2)cc1 | > 100 | > 100 | 40.3 | > 100 | 64.9 | 88.6 | > 100 | > 100 |
| CN(/N=C/c1cccc2cccnc12)c1c([N+](=O)[O-])cc([N+](=O)[O-])cc1[N+](=O)[O-] | > 100 | > 100 | > 100 | > 100 | > 100 | > 100 | > 100 | > 100 |
| NCCCCCCNCc1cccc2ccccc12 | > 100 | > 100 | > 100 | > 100 | > 100 | > 100 | > 100 | > 100 |
| Cc1nc2sccn2c1C(=O)NC(=O)Nc1ccc(Cl)cc1 | > 100 | > 100 | > 100 | > 100 | > 100 | > 100 | > 100 | > 100 |
| O=C(CCc1nnc2s/c(=C\c3ccccc3Cl)c(=O)n12)Nc1cc(Cl)ccc1Cl | > 100 | > 100 | > 100 | > 100 | > 100 | > 100 | > 100 | > 100 |
| CN(C)CCNC(=O)c1cccc2ccc(-c3ccc(-c4ccccc4)cc3)nc12 | 7.66 | 8.64 | 4.23 | 3.39 | 5.16 | 12 | 6.15 | 3.1 |
| CCOC(=O)/C(=C/c1ccc(N(CCC#N)CCC#N)cc1C)NC(=O)/C=C/c1ccccc1 | > 100 | > 100 | > 100 | > 100 | > 100 | > 100 | > 100 | > 100 |
| CC(C)(C)OC(=O)c1cccnc1/C=N/O | > 100 | > 100 | > 100 | > 100 | > 100 | > 100 | > 100 | > 100 |
| CCOC(=O)C1([Se]c2ccccc2)CCCC1=O (configuration not stated) | > 100 | 32.9 | 23.5 | 34.2 | 57.1 | 98 | 21.3 | 58 |
